Data reported in EP0103381B1, “Substituted anthra(1,9-cd)pyrazol-6(2H)-ones” (WARNER-LAMBERT COMPANY, priority 1982, dated 1984).

How the values were obtained:
Penicillium avellaneum = test: agar plate paper-disc inhibition zone screening; format: cell-based; details: Hamigera avellanea; Dose 3.0 mg/ml; read-out: Inhibition Zone Diameter mm (Dose mg/ml) P. Avellaneum
Experimental: The Penicillium avellaneum is grown for six days, at 28°C, on an agar medium. This is to allow sporulation of the culture. The organism is then harvested by scraping off the cells from the agar surface (mycelia and spores) and suspending them in saline solution containing 0.05% Tween 80.
The suspension is adjusted to a light transmittancy of 20%. One ml of this suspension is used to inoculate 100 ml of the molten-agar assay medium.
(§1) Stainless steel frames, 12.3 x 25.3 cm (ID) and glass plates, 15.3 x 31.7 cm are used to make the test trays. The frames are attached to the plates with tape at each end and the inner edges sealed with 2% agar. Twenty five ml of inoculated assay medium is spread evenly on each tray and allowed to solidify. The trays are covered, inverted, and refrigerated until used.
(§2) The compounds or samples to be tested are dissolved in suitable solvents, e.g., alcohols, dimethylsulfoxide, or N,N-dimethylformamide. The samples are generally dissolved so that the final concentration of the solvent is <10%.^* The compounds are tested at different concentrations: 3,000; 1,000; 500; 100; and 10 mcg/ml. Paper discs (12.7 mm diameter) are placed on the agar trays with forceps, then 0.08 ml of the dissolved compound is pipetted onto each disc using a 0.2 ml pipette.
(§3) The disked agar trays are incubated overnight (18-20 hours) at 37°C for the bacterial cultures and 28°C for the yeasts. The Penicillium avellaneium tray is incubated for at least […] since it is a slower- growing organism.
(§4) Active compounds show a zone of inhibition around the disc. The diameter of the zone is measured in mm. The zone diameter of active compounds ranges from a minimum of 13.5 mm to as high as 60 mm. The size of the zone diameter generally reflects the activity of the compound: the larger the zone the greater the activity.

Bacillus subtilis = test: agar plate paper-disc inhibition zone screening; format: cell-based; details: read-out: Inhibition Zone Diameter mm (Dose mg/ml) B. Subtilis; for zone of inhibition at 3000 µg/mL: Dose 3.0 mg/ml; for zone of inhibition at 100 µg/mL: Dose 0.1 mg/ml
Experimental: (§5) The bacterial and yeast isolates are maintained in agar slants or in liquid media, hereby designated as inoculum media. The cultures are transferred at regular intervals in such media. (See Table for the corresponding inoculum media of each culture.) The organisms are generally transferred on to agar slants or liquid inoculum media and incubated overnight (18-20 hours): 37°C for the bacterial isolates and 28°C for the fungal cultures.
(§6) The microbial cells from the overnight agar slants are then scraped off and suspended in saline solution (0.85% NaCI). The microbial concentrations are adjusted to a light transmittancy of 20-35%, Junior Coleman Spectrophotometer (555 M). For the organisms that are maintained in liquid media, an aliquot of the culture suspension is simply diluted with saline to 20-35% light transmittancy.
(§7) The above microbial suspension serve as inocula for the assay plates. Thus, 0.16-10 ml (see Table for exact amount) are used to inoculate 100 ml of the molten-agar assay medium.
as §1, §2, §3, §4

Aerobacter aerogenes = test: agar plate paper-disc inhibition zone screening; format: cell-based; details: Klebsiella aerogenes, read-out: Inhibition Zone Diameter mm (Dose mg/ml) A. Aerogenes; for zone of inhibition at 3000 µg/mL: Dose 3.0 mg/ml; for zone of inhibition at 500 µg/mL: Dose 0.5 mg/ml
Experimental: as §5, §6, §7, §1, §2, §3, §4

Streptococcus faecalis = test: agar plate paper-disc inhibition zone screening; format: cell-based; details: Enterococcus faecalis, read-out: Inhibition Zone Diameter mm (Dose mg/ml) S. Faecalis; for zone of inhibition at 3000 µg/mL: Dose 3.0 mg/ml
Experimental: as §5, §6, §7, §1, §2, §3, §4

Escherichia coli = test: agar plate paper-disc inhibition zone screening; format: cell-based; details: read-out: Inhibition Zone Diameter mm (Dose mg/ml) E. Coli; for zone of inhibition at 1000 µg/mL: Dose 1.0 mg/ml; for zone of inhibition at 500 µg/mL: Dose 0.5 mg/ml; for zone of inhibition at 3000 µg/mL: Dose 3.0 mg/ml
Experimental: as §5, §6, §7, §1, §2, §3, §4

[1] = test system: lymphocytic leukemia P388; test: in vivo lymphocytic leukemia P388 test; parameters: species or system mice; details: Mus musculus, P388, ip, 720 h, two single doses four days apart, read-out: T/C × 100 (Percent); for response vs control in vivo at 0.39 mg/kg: P388, Dose 0.39 mg/kg intraperitoneally; for response vs control in vivo at 0.78 mg/kg: P388, Dose 0.78 mg/kg intraperitoneally; for response vs control in vivo at 1.56 mg/kg: P388, Dose 1.56 mg/kg intraperitoneally; for response vs control in vivo at 25 mg/kg: P388, Dose 25 mg/kg intraperitoneally; for response vs control in vivo at 3.12 mg/kg: P388, Dose 3.12 mg/kg intraperitoneally; for response vs control in vivo at 6.25 mg/kg: P388, Dose 6.25 mg/kg intraperitoneally; for response vs control in vivo at 12.5 mg/kg: P388, Dose 12.5 mg/kg intraperitoneally
Experimental: The in vivo lymphocytic leukemia P388 test is carried out by the United States National Cancer Institute. The animals used are either male or female CD2F, mice. There are six to seven animals per test group. The tumor transplant is by intraperitoneal injection of dilute ascitic fluid containing cells of lymphocytic leukemia P388. The test compounds are administered intraperitoneally in two single doses with a four-day interval between doses at various dose levels following tumor inoculation. The animals are weighed and survivors are recorded on a regular basis for 30 days. A ratio of survival time for treated (T)/ control (C) animals is calculated. The criterion for efficacy is T/C x 100 > 125%. The positive control compound in this test is 1,4-dihydroxy-5,8-[bis[[2-[(2-hydroxyethyl)amino]-ethyl]amino]-9,10-anthracene- dione given at dosages ranging from 12.0 to 0.075 mg/kg. See Cancer Chemotherapy Reports, Part 3, 3, 1 (1972) for a comprehensive discussion of the protocol.

SMILES: NCCNc1ccc2c3c(nn2CCNCCO)-c2c(O)ccc(O)c2C(=O)c13 [Example 55, 5-[(2-Aminoethyl)amino]-7,10-dihydroxy-2-[2-[(2-hydroxyethyl)amino]ethyl]anthra[1,9-cd]pyrazol-6(2H)-one]
- zone of inhibition at 3000 µg/mL (Penicillium avellaneum): 0 mm
- zone of inhibition at 3000 µg/mL (Bacillus subtilis): 14 mm
- zone of inhibition at 3000 µg/mL (Aerobacter aerogenes): 15 mm
- zone of inhibition at 3000 µg/mL (Streptococcus faecalis): 0 mm
- zone of inhibition at 1000 µg/mL (Escherichia coli): 14 mm
- response vs control in vivo at 0.39 mg/kg [1]: 175%
- response vs control in vivo at 0.78 mg/kg [1]: 182%
- response vs control in vivo at 1.56 mg/kg [1]: 173%

SMILES: CCN(CC)CCn1nc2c3c(c(NCCNCCO)ccc31)C(=O)c1ccccc1-2 [Example 2]
- zone of inhibition at 3000 µg/mL (Penicillium avellaneum): 0 mm
- zone of inhibition at 100 µg/mL (Bacillus subtilis): 16 mm
- zone of inhibition at 500 µg/mL (Aerobacter aerogenes): 18 mm
- zone of inhibition at 500 µg/mL (Streptococcus faecalis; Dose 0.5 mg/ml): 15 mm
- zone of inhibition at 100 µg/mL (Escherichia coli; Dose 0.1 mg/ml): 14 mm
- response vs control in vivo at 0.78 mg/kg [1]: 135%
- response vs control in vivo at 1.56 mg/kg [1]: 142%
- response vs control in vivo at 25 mg/kg [1]: 197%

SMILES: O=C1c2c(O)ccc(O)c2-c2nn(CCNCCO)c3ccc(NCCNCCO)c1c23 [Example 54, 7,10-Dihydroxy-2-[2-[12-hydroxyethyl)amino]ethyl]-5-[[2-[(2-hydroxyethyl)amino]ethyl]amino]anthra[1,9-cdlpyrazol-6(2H)-one]
- zone of inhibition at 3000 µg/mL (Penicillium avellaneum): 0 mm
- zone of inhibition at 3000 µg/mL (Bacillus subtilis): 14 mm
- zone of inhibition at 3000 µg/mL (Aerobacter aerogenes): 15 mm
- zone of inhibition at 3000 µg/mL (Streptococcus faecalis): 0 mm
- zone of inhibition at 1000 µg/mL (Escherichia coli): 14 mm
- response vs control in vivo at 1.56 mg/kg [1]: 158%
- response vs control in vivo at 3.12 mg/kg [1]: 187%
- response vs control in vivo at 6.25 mg/kg [1]: 206%
- response vs control in vivo at 25 mg/kg [1]: 158%
- response vs control in vivo at 50 mg/kg ([1]; P388, Dose 50 mg/kg intraperitoneally): 139%

SMILES: CN(C)CCNc1ccc2c3c(nn2CCNCCO)-c2c(O)ccc(O)c2C(=O)c13 [Example 56, 5-[[2-(Dimethylamino)ethyl]amino]-7,10-dihydroxy-2-[2-[(2-hydroxyethyl)amino]ethyl]anthra[1,9-cd]pyrazol-6(2H)-one]
- zone of inhibition at 3000 µg/mL (Penicillium avellaneum): 0 mm
- zone of inhibition at 1000 µg/mL (Bacillus subtilis; Dose 1.0 mg/ml): 14 mm
- zone of inhibition at 500 µg/mL (Aerobacter aerogenes): 14 mm
- zone of inhibition at 1000 µg/mL (Streptococcus faecalis; Dose 1.0 mg/ml): 14 mm
- zone of inhibition at 500 µg/mL (Escherichia coli): 14 mm
- response vs control in vivo at 0.78 mg/kg [1]: 152%
- response vs control in vivo at 1.56 mg/kg [1]: 161%
- response vs control in vivo at 3.12 mg/kg [1]: 165%
- response vs control in vivo at 6.25 mg/kg [1]: 165%
- response vs control in vivo at 25 mg/kg [1]: 88%

SMILES: CN(C)CCCn1nc2c3c(c(NCCN)ccc31)C(=O)c1c(O)ccc(O)c1-2 [Example 94, 5-[(2-Aminoethyl)amino]-2-[3-(dimethylamino)propyl]-7,10-dihydroxyanthra[1,9-cd]pyrazol-6(2H)-one]
- zone of inhibition at 3000 µg/mL (Penicillium avellaneum): 0 mm
- zone of inhibition at 3000 µg/mL (Bacillus subtilis): 0 mm
- zone of inhibition at 3000 µg/mL (Aerobacter aerogenes): 15 mm
- zone of inhibition at 3000 µg/mL (Streptococcus faecalis): 0 mm
- zone of inhibition at 3000 µg/mL (Escherichia coli): 15 mm
- response vs control in vivo at 3.12 mg/kg [1]: 191%
- response vs control in vivo at 6.25 mg/kg [1]: 186%
- response vs control in vivo at 12.5 mg/kg [1]: 224%

SMILES: CCN(CC)CC(O)Cn1nc2c3c(c(NCCN)ccc31)C(=O)c1c(O)ccc(O)c1-2 (stereo not drawn) [Example 45, 5-[(2-Aminoethyl)amino]-2-[3-(diethylamino)-2-hydroxypropyl]-7,10-dihydroxyanthra[1,9-cd]pyrazol-6(2H)-one]
- zone of inhibition at 3000 µg/mL (Penicillium avellaneum): 0 mm
- zone of inhibition at 3000 µg/mL (Bacillus subtilis): 14 mm
- zone of inhibition at 500 µg/mL (Aerobacter aerogenes): 15 mm
- zone of inhibition at 3000 µg/mL (Streptococcus faecalis): 0 mm
- zone of inhibition at 500 µg/mL (Escherichia coli): 15 mm
- response vs control in vivo at 0.39 mg/kg [1]: 135%
- response vs control in vivo at 1.56 mg/kg [1]: 157%

SMILES: CN1CCN(c2ccc3c4c(nn3CCNCCO)-c3c(O)ccc(O)c3C(=O)c24)CC1 [Example 64, 7,10-Dihydroxy-2-[2-[(2-hydroxyethyl)amino]ethyl]-5-(4-methyl-1-piperazinyl)anthra[1,9-cd]pyrazol-6(2H)-one]
- zone of inhibition at 3000 µg/mL (Penicillium avellaneum): 0 mm
- zone of inhibition at 3000 µg/mL (Bacillus subtilis): 0 mm
- zone of inhibition at 500 µg/mL (Aerobacter aerogenes): 17 mm
- zone of inhibition at 3000 µg/mL (Streptococcus faecalis): 0 mm
- zone of inhibition at 1000 µg/mL (Escherichia coli): 14 mm
- response vs control in vivo at 6.25 mg/kg [1]: 163%
- response vs control in vivo at 12.5 mg/kg [1]: 169%
- response vs control in vivo at 25 mg/kg [1]: 150%

SMILES: COCCn1nc2c3c(c(NCCN)ccc31)C(=O)c1c(O)ccc(O)c1-2 [Example 77, 5-[(2-Aminoethyl)amino]-7,10-dihydroxy-2-(2-methoxyethyl)anthra(1,9-cd]pyrazol-6(2H)-one]
- zone of inhibition at 3000 µg/mL (Penicillium avellaneum): 0 mm
- zone of inhibition at 3000 µg/mL (Bacillus subtilis): 16 mm
- zone of inhibition at 3000 µg/mL (Aerobacter aerogenes): 14 mm
- zone of inhibition at 3000 µg/mL (Streptococcus faecalis): 0 mm
- zone of inhibition at 3000 µg/mL (Escherichia coli): 16 mm

SMILES: O=C1c2ccccc2-c2nn(CCO)c3ccc(NCCNCCO)c1c23 [Example 12, 2-(2-Hydroxyethyl)-5-[[2-[(2-hydroxyethyl)amino]ethyl]amino]anthra[1,9-cd]pyrazol-6(2H)-one]
- zone of inhibition at 3000 µg/mL (Penicillium avellaneum): 0 mm
- zone of inhibition at 100 µg/mL (Bacillus subtilis): 14 mm
- zone of inhibition at 500 µg/mL (Aerobacter aerogenes): 14 mm
- zone of inhibition at 3000 µg/mL (Streptococcus faecalis): 16 mm
- zone of inhibition at 3000 µg/mL (Escherichia coli): 14 mm
